“Also recorded” adds a separate entry of the source.
Tests used:
[1] = ITC sterol binding, POPC LUVs containing 10% ergosterol
Procedure: (§1) Isothermal Titration calorimetry (ITC)
(§2) In an optimized isothermal titration calorimetry (ITC)-based assay, an aqueous solution of AmB was titrated with a suspension of large unilamellar vesicles (LUVs) comprised of only 1-palmitoyl-2-oleoyl-sn-glycero-3-phosphocholine (POPC), and the net exotherm was recorded. The titration was repeated using POPC LUVs containing 10% ergosterol. […] The titration was repeated using C2′epiAmB. […] The ITC assay was also conducted with cholesterol in place of ergosterol.
(§3) Experiments were performed using a NanoITC isothermal titration calorimeter (TA Instruments, Wilmington, Del.). Solutions of the compounds to be tested were prepared by diluting a 60.0 mM stock solution of the compound in DMSO to 600 μM with K buffer (5.0 mM HEPES/KHEPES, pH=7.4). The final DMSO concentration in the solution was 1% v/v. Large unilamellar vesicles comprised of only 1-palmitoyl-2-oleoyl-sn-glycero-3-phosphocholine (POPC LUVs) were prepared and phosphorus and ergosterol content was quantified as described below. The LUV solutions were diluted with buffer and DMSO to give a final phospholipid concentration of 12.0 mM in a 1% DMSO/K buffer solution. Immediately prior to use, all solutions were incubated at 37° C. for 30 minutes and degassed under vacuum at 37° C. for 10 minutes. The reference cell of the instrument (volume=0.190 mL) was filled with a solution of 1% v/v DMSO/K buffer.
(§4) Palmitoyl oleoyl phosphatidylcholine (POPC) was obtained as a 20 mg/mL solution in CHCl3 from Avanti Polar Lipids (Alabaster, Ala.) and was stored at −20° C. under an atmosphere of dry argon and used within 1 month. […]
Ergosterol content was determined spectrophotometrically. […] The solutions were then analyzed by UV/Vis spectroscopy and the concentration of ergosterol in solution was determined by the extinction coefficient of 10400 L mol^−1 cm^−1 at the UVmax of 282 nm and was compared to the concentration of phosphorus to determine the percent sterol content. The extinction coefficient was determined independently in the above ternary solvent system. […]

[2] = ITC titration with sterol-free POPC LUVs; format: binding; details: no sterol LUVs, 600 μM compound
Procedure: as §1, §2
Experiments were performed using a NanoITC isothermal titration calorimeter (TA Instruments, Wilmington, Del.). Solutions of the compounds to be tested were prepared by diluting a 60.0 mM stock solution of the compound in DMSO to 600 μM with K buffer (5.0 mM HEPES/KHEPES, pH=7.4). The final DMSO concentration in the solution was 1% v/v. Large unilamellar vesicles comprised of only 1-palmitoyl-2-oleoyl-sn-glycero-3-phosphocholine (POPC LUVs) were prepared and phosphorus and ergosterol content was quantified as described below. […]
(§5) NanoAnalyze software (TA Instruments) was used for baseline determination and integration of the injection heats, and Microsoft Excel was used for subtraction of dilution heats and the calculation of overall heat evolved. […] By this method, the overall heat evolved during the experiment was calculated using the following formula: […]

[3] = ITC sterol binding, POPC LUVs containing 10% cholesterol
Procedure: as §1, §2, §3
as §4, with “month. A 4 mg/mL solution of ergosterol in CHCl3 was prepared monthly and stored at 4° C. under an atmosphere of dry argon.” for “month.”
as §5

Compound: C[C@@H]1[C@H](O)[C@@H](C)/C=C/C=C/C=C/C=C/C=C/C=C/C=C/[C@H](O[C@@H]2O[C@H](C)[C@@H](O)[C@H](N)[C@H]2O)CC2O[C@](O)(C[C@@H](O)C[C@@H](O)[C@H](O)CC[C@@H](O)C[C@@H](O)CC(=O)O[C@H]1C)C[C@H](O)[C@H]2C(=O)O [C2′epiAmB]
- Total exotherm ([1]; 10% ergosterol LUVs, 600 μM compound): -15.24 ± 1.66 µcal
- Binding to ergosterol (in words) ([1]; net exotherm vs sterol-free LUVs): binds to ergosterol; also recorded: retained capacity for the epimeric derivative to bind ergosterol
- Total exotherm [2]: -6.70 ± 0.11 µcal
- Total exotherm ([3]; 10% cholesterol LUVs, 600 μM compound): -6.43 ± 2.80 µcal
- Binding to cholesterol (in words) ([3]; within the limits of the binding assay): but not cholesterol; also recorded: not found to bind to cholesterol; also recorded: do not bind cholesterol
